The results in this text go back to US10294202B2, “Pyrrolidinones as herbicides” (FMC Corporation, priority 2013, dated 2019).

Structures are written as SMILES.

One experiment deals with kochia. Kind of experiment: Test D pre-/postemergence herbicide test. The settings on record: for Plant response rating: Kochia, scale 0 to 100; for Plant response rating, Kochia: scale 0 to 100 (0 no effect, 100 complete control). The format is in vivo, Kochia scoparia. An excerpt:
Seeds of plant species selected from bluegrass (annual bluegrass, Poa annua), blackgrass (Alopecurus myosuroides), canarygrass (littleseed canarygrass, Phalaris minor), chickweed (common chickweed, Stellaria media), galium (catchweed bedstraw, Galium aparine), bromegrass, downy (downy bromegrass, Bromus tectorum), field poppy (Papaver rhoeas), field violet (Viola arvensis), foxtail, green (green foxtail, Setaria viridis), deadnettle (henbit deadnettle, Lamium amplexicaule), ryegrass, Italian (Italian ryegrass, Lolium multiflorum), kochia (Kochia scoparia), lambsquarters (Chenopodium album), oilseed rape (Brassica napus), pigweed (Amaranthus retroflexus), chamomile (scentless chamomile, Matricaria inodora), Russian thistle (Salsola kali), speedwell (bird's-eye speedwell, Veronica persica), barley, spring (spring barley, Hordeum vulgare), wheat, spring (spring wheat, Triticum aestivum), buckwheat, wild (wild buckwheat, Polygonum convolvulus), mustard, wild (wild mustard, Sinapis arvensis), oat, wild (wild oat, Avena fatua), radish, wild (wild radish, Raphanus raphanistrum), […]), barley, winter (winter barley, Hordeum vulgare), and wheat, winter (winter wheat, Triticum aestivum) were planted into a silt loam soil and treated preemergence with test chemicals formulated in a non-phytotoxic solvent mixture which included a surfactant. At the same time, these species were planted in pots containing Redi-Earth® planting medium (Scotts Company, 14111 Scottslawn Road, Marysville, Ohio 43041) comprising spaghnum peat moss, vermiculite, wetting agent and starter nutrients and treated with postemergence applications of the test chemicals formulated in the same manner. Plants ranged in height from 2 to 18 cm (1- to 4-leaf stage). Treated plants and controls were maintained in a controlled growth environment for 7 to 21 days after which time all species were compared to controls and visually evaluated. Plant response ratings, summarized in Table D, are based on a scale of 0 to 100 where 0 is no effect and 100 is complete control. A dash (-) response means no test result.

For the next experiment, the system named is corn. As to the kind of experiment: Test E preemergence herbicide test. Format: in vivo, Zea mays. On the set-up: key: 0 = no effect, 100 = complete control. The text has this:
(§1) Seeds of plant species selected from corn (Zea mays), soybean (Glycine max), velvetleaf (Abutilon theophrasti), lambsquarters (Chenopodium album), wild poinsettia (Euphorbia heterophylla), pigweed, palmer (palmer pigweed, Amaranthus palmeri), waterhemp (common waterhemp, Amaranthus rudis), surinam grass (Brachiaria decumbens), crabgrass, large (large crabgrass, Digitaria sanguinalis), crabgrass, Brazil (Brazilian crabgrass, Digitaria horizontalis), panicum, fall (fall panicum, Panicum dichotomiflorum), foxtail, giant (giant foxtail, Setaria faberii), foxtail, green (green foxtail, Setaria viridis), goosegrass (Eleusine indica), johnsongrass (Sorghum halepense), ragweed (common ragweed, Ambrosia elatior), barnyardgrass (Echinochloa crus-galli), sandbur (southern sandbur, Cenchrus echinatus), arrowleaf […] rhombifolia), ryegrass, Italian (Italian ryegrass, Lolium multiflorum), dayflower, VA (Virginia dayflower, Commelina virginica), field bindweed (Convolvulus arvensis), morningglory (Ipomoea coccinea), nightshade (eastern black nightshade, Solanum ptycanthum), kochia (Kochia scoparia), nutsedge, yellow (yellow nutsedge, Cyperus esculentus), cocklebur (common cocklebur, Xanthium strumarium), smartweed (ladysthumb smartweed, Polygonum Persicaria) and beggarticks (hairy beggarticks, Bidens pilosa), were planted into a silt loam soil and treated preemergence with test chemicals formulated in a non-phytotoxic solvent mixture which included a surfactant. Treated plants and controls were maintained in a greenhouse for 21 days, after which time all species were compared to controls and visually evaluated. Plant response ratings, summarized in Table E, are based on a scale of 0 to 100 where 0 is no effect and 100 is complete control. A dash (-) response means no test result.

The subject of another experiment is lambsquarters. Kind of experiment: Test E preemergence herbicide test. Format: in vivo, Chenopodium album. On the set-up: key: 0 = no effect, 100 = complete control.
Source text: as §1

Another experiment has as its system velvetleaf. As to the kind of experiment: Test E preemergence herbicide test. Format: in vivo, Abutilon theophrasti. On the set-up: key: 0 = no effect, 100 = complete control.
Source text: as §1

A further experiment relates to field bindweed. Kind of experiment: Test E preemergence herbicide test. The format is in vivo, Convolvulus arvensis. Also noted: key: 0 = no effect, 100 = complete control.
Source text: as §1

Another experiment has as its system wild poinsettia. Kind of experiment: Test E preemergence herbicide test. Format: in vivo, Euphorbia heterophylla. Also noted: key: 0 = no effect, 100 = complete control.
Source text: as §1

`O=C1NCC(c2ccc(F)c(F)c2)C1C(=O)Nc1ccccc1C(F)(F)F` (racemic) [Compound 6]: the Plant response rating in the experiment with kochia (Postemergence, 16 g ai/ha) came to 0; with kochia (Postemergence, 31 g ai/ha), 5; in the experiment with kochia (Postemergence, 62 g ai/ha), 5; in the experiment on kochia (Postemergence, 125 g ai/ha) it was 5; with kochia (Postemergence, 250 g ai/ha) it was 10; in the experiment with kochia (Preemergence, 125 g ai/ha), 40. This molecule registered a Plant response rating with kochia (Preemergence, 250 g ai/ha) of 50. In addition, the “Plant response rating, Kochia” value amounted to 30 with kochia (Preemergence, 62 g ai/ha); 0 with kochia (Preemergence, 16 g ai/ha); 0 in the experiment on kochia (Preemergence, 31 g ai/ha).
As to `O=C1NCC(c2ccc(Cl)c(Cl)c2)C1C(=O)Nc1ccccc1F` (racemic) [Compound 14], the “Plant response rating, Corn” value in the experiment with corn (16 g ai/ha), with corn (31 g ai/ha), with corn (62 g ai/ha), in the experiment with corn (125 g ai/ha) and in the experiment on corn (250 g ai/ha) was 0 throughout. Besides, the “Plant response rating, Lambsquarters” value in the experiment on lambsquarters (16 g ai/ha) turned out to be 0; in the experiment on lambsquarters (31 g ai/ha) it was 0; in the experiment with lambsquarters (62 g ai/ha), 0; in the experiment with lambsquarters (125 g ai/ha), 50; in the experiment on lambsquarters (250 g ai/ha), 70. In addition, the “Plant response rating, Velvetleaf” value in the experiment with velvetleaf (16 g ai/ha), in the experiment on velvetleaf (31 g ai/ha), in the experiment on velvetleaf (62 g ai/ha), with velvetleaf (125 g ai/ha) and in the experiment with velvetleaf (250 g ai/ha) was 0 throughout. The “Plant response rating, Field Bindweed” value with field bindweed (16 g ai/ha), in the experiment with field bindweed (31 g ai/ha), in the experiment on field bindweed (62 g ai/ha), with field bindweed (125 g ai/ha) and in the experiment on field bindweed (250 g ai/ha) was 0 throughout. The “Plant response rating, Poinsettia, Wild” value in the experiment on wild poinsettia (16 g ai/ha) turned out to be 0; in the experiment on wild poinsettia (31 g ai/ha) it was 0; in the experiment on wild poinsettia (62 g ai/ha), 15; in the experiment with wild poinsettia (125 g ai/ha) it was 20; with wild poinsettia (250 g ai/ha), 25.
Regarding `O=C1NCC(c2ccc(F)c(C(F)(F)F)c2)C1C(=O)Nc1cccc(F)c1F` (racemic) [Compound 77], the “Plant response rating, Kochia” value with kochia (Preemergence, 62 g ai/ha) came out at 75; in the experiment with kochia (Preemergence, 31 g ai/ha), 35. For the same molecule, the Plant response rating in the experiment with kochia (Preemergence, 125 g ai/ha) was 80; with kochia (Preemergence, 250 g ai/ha), 85.
In the case of `O=C1NCC(c2ccc(C(F)(F)F)cc2)C1C(=O)Nc1cccc(F)c1F` (racemic) [Compound 202], the “Plant response rating, Corn” value in the experiment with corn (31 g ai/ha) came to 0; with corn (62 g ai/ha) it was 0; with corn (125 g ai/ha), 40; with corn (250 g ai/ha), 60. Moreover, the Plant response rating in the experiment with kochia (Postemergence, 31 g ai/ha) was 70; in the experiment with kochia (Postemergence, 62 g ai/ha), 70; in the experiment with kochia (Postemergence, 125 g ai/ha), 75; in the experiment with kochia (Postemergence, 250 g ai/ha), 75; with kochia (Preemergence, 125 g ai/ha), 85; in the experiment with kochia (Preemergence, 250 g ai/ha), 85. In addition, the “Plant response rating, Kochia” value with kochia (Preemergence, 62 g ai/ha) came out at 85; with kochia (Preemergence, 31 g ai/ha), 85. The “Plant response rating, Lambsquarters” value is given as 0 with lambsquarters (31 g ai/ha), 98 in the experiment with lambsquarters (62 g ai/ha), 98 with lambsquarters (125 g ai/ha) and 98 in the experiment on lambsquarters (250 g ai/ha). Also, the “Plant response rating, Velvetleaf” value in the experiment with velvetleaf (31 g ai/ha) was 0; in the experiment with velvetleaf (62 g ai/ha) it was 0; with velvetleaf (125 g ai/ha), 0; with velvetleaf (250 g ai/ha), 40. For the same molecule, the “Plant response rating, Field Bindweed” value in the experiment on field bindweed (31 g ai/ha) was determined as 60; in the experiment with field bindweed (62 g ai/ha) it was 40; with field bindweed (125 g ai/ha) it was 50; in the experiment on field bindweed (250 g ai/ha), 70. Moreover, the “Plant response rating, Poinsettia, Wild” value turned out to be 0 with wild poinsettia (31 g ai/ha), 0 with wild poinsettia (62 g ai/ha), 25 in the experiment with wild poinsettia (125 g ai/ha) and 65 in the experiment with wild poinsettia (250 g ai/ha).
Regarding `O=C1NCC(c2ccc(OC(F)F)cc2)C1C(=O)Nc1cccc(F)c1F` (racemic) [Compound 350], the “Plant response rating, Corn” value with corn (31 g ai/ha), in the experiment on corn (62 g ai/ha), in the experiment with corn (125 g ai/ha) and with corn (250 g ai/ha) was 0 throughout. Moreover, the “Plant response rating, Lambsquarters” value in the experiment with lambsquarters (31 g ai/ha) stood at 80; in the experiment on lambsquarters (62 g ai/ha) it was 60; with lambsquarters (125 g ai/ha) it was 98; in the experiment with lambsquarters (250 g ai/ha) it was 95. The “Plant response rating, Velvetleaf” value with velvetleaf (31 g ai/ha), with velvetleaf (62 g ai/ha), with velvetleaf (125 g ai/ha) and in the experiment with velvetleaf (250 g ai/ha) was 0 each time. Moreover, the “Plant response rating, Field Bindweed” value in the experiment with field bindweed (31 g ai/ha) came to 40; with field bindweed (62 g ai/ha), 60; in the experiment on field bindweed (125 g ai/ha), 65; in the experiment on field bindweed (250 g ai/ha) it was 60. Also, the “Plant response rating, Poinsettia, Wild” value with wild poinsettia (31 g ai/ha) is 0; in the experiment with wild poinsettia (62 g ai/ha) it was 0; in the experiment on wild poinsettia (125 g ai/ha), 0; in the experiment on wild poinsettia (250 g ai/ha) it was 30.
For `O=C1NCC(c2cc(F)c(F)cc2F)C1C(=O)Nc1cccc(F)c1F` (centres unmarked) [Compound 50], the Plant response rating with kochia (Postemergence, 16 g ai/ha) amounted to 10; in the experiment with kochia (Postemergence, 31 g ai/ha) it was 15; with kochia (Postemergence, 62 g ai/ha), 15; with kochia (Postemergence, 125 g ai/ha) it was 0; in the experiment with kochia (Preemergence, 125 g ai/ha) it was 0. For the same molecule, the “Plant response rating, Kochia” value in the experiment on kochia (Preemergence, 62 g ai/ha) worked out at 10; in the experiment on kochia (Preemergence, 16 g ai/ha) it was 5; in the experiment on kochia (Preemergence, 31 g ai/ha), 10.
For the molecule `O=C1NCC(c2ccc(Cl)c(F)c2)C1C(=O)Nc1cccc(F)c1F` (centres unmarked) [Compound 52], the Plant response rating with kochia (Postemergence, 16 g ai/ha) was determined as 0; in the experiment with kochia (Postemergence, 31 g ai/ha), 0; with kochia (Postemergence, 62 g ai/ha) it was 20; in the experiment with kochia (Postemergence, 125 g ai/ha), 25; in the experiment with kochia (Postemergence, 250 g ai/ha) it was 35; in the experiment with kochia (Preemergence, 125 g ai/ha), 20. Moreover, in the experiment with kochia (Preemergence, 250 g ai/ha), the Plant response rating came to 40. For the same molecule, the “Plant response rating, Kochia” value in the experiment on kochia (Preemergence, 62 g ai/ha) came out at 20; in the experiment with kochia (Preemergence, 16 g ai/ha), 0; with kochia (Preemergence, 31 g ai/ha), 20.
Take `O=C1NCC(c2ccc(C(F)(F)F)cc2)C1C(=O)Nc1ccccc1F` (centres unmarked) [Compound 231]: the Plant response rating amounted to 55 with kochia (Postemergence, 31 g ai/ha); 60 in the experiment with kochia (Postemergence, 62 g ai/ha); 60 in the experiment on kochia (Postemergence, 125 g ai/ha); 65 in the experiment on kochia (Postemergence, 250 g ai/ha); 85 with kochia (Preemergence, 250 g ai/ha). Besides, the “Plant response rating, Kochia” value in the experiment on kochia (Preemergence, 62 g ai/ha) came to 20; in the experiment with kochia (Preemergence, 125 g ai/ha) it was 80; with kochia (Preemergence, 31 g ai/ha) it was 0.
